Experimental data published in publication PMC10897015, “Investigation of anti-nociceptive, anti-inflammatory potential and ADMET studies of pure compounds isolated from Isodon rugosus Wall. ex Benth” (Frontiers in Pharmacology, 2024).
Values joined by “and” are separate entries in the source; they are usually repeats but may differ in a detail not shown here. Identical values can stand only once. Marks after values point to notes of the source that are not given here.

How the values were obtained:
[1] = tested on: Swiss albino mice; experiment: Acetic acid-induced writhing test; assay type: in vivo; settings: for % analgesic activity (writhing inhibition) / Mean writhes: dose 10 mg/kg, oral; for Mean writhes: writhes counted 5-30 min after acetic acid, 10 mg/kg
Experimental: An anti-nociceptive assessment was performed on Swiss albino mice of both sexes, sourced from the National Institute of Health, Islamabad, Pakistan. […] Mice of either sex were divided into different groups, with five mice in each group. The test samples were carefully administered orally, with doses of 250, 500, 1000, and 2000 mg/kg.
I. rugosus was evaluated for its analgesic potential through an acetic acid-induced writhing test. Oral administration of the test samples was carried out using specified doses. After 30 min of interval, 10 ml/kg of acetic acid (0.6%) was injected into the mice. Group I served as the control and received 0.5% Tween-80 (3 ml/kg), group II received diclofenac sodium (10 mg/kg), and groups III and IV received test compounds. The count of writhes was recorded between 5 and 30 min, following the i/p injection of acetic acid ([Franzotti et al., 2000]).

[2] = tested on: Swiss albino mice; experiment: Hot plate test, involvement of adrenergic receptors; assay type: in vivo; settings: single animals
Experimental: The analgesic effects of the isolated compounds were measured using the hot plate method at a monitored temperature of 55 ± 0.2°C. The Swiss albino mice were positioned on the heated surface of the hot plate, and the period from placement to the onset of licking their hind paws or starting jump movements was noted as the response latency (thermal reactions). The test compounds were injected intraperitoneally. […] The animal models were checked for thermal reactions at various time intervals after sample administration.
The outcomes of the positive control and tested compounds were compared in animals pretreated with yohimbine. […] Additionally, clonidine at a dose of 3 μg/kg was intravenously administered. The animals were then subjected to the hot plate method, as reported before.

[3] = tested on: mice; experiment: Carrageenan-induced paw edema; assay type: in vivo; settings: for % edema volume inhibition (mean): aspirin 10 mg/kg; for Paw edema percent inhibition, individual values / Paw edema, individual values: single animals
Experimental: The animals under study were divided into different groups. Prior to the experiment, the animals had only access to water. […] Additionally, the isolated compounds being tested were given 30 min before injecting 0.05 ml of 1% carrageenan into the sub-plantar region of the paw. To measure the volume changes in the paw, a digital plethysmometer was employed. Readings were taken before and after the carrageenan injection at hourly intervals over a total period of 5 h.

[4] = target: T1, 5-LOX (Glycine max, UniProt P08170); experiment: Lipoxygenase (5-LOX) inhibitory activity; assay type: biochemical
T1 sequence (P08170 1-839): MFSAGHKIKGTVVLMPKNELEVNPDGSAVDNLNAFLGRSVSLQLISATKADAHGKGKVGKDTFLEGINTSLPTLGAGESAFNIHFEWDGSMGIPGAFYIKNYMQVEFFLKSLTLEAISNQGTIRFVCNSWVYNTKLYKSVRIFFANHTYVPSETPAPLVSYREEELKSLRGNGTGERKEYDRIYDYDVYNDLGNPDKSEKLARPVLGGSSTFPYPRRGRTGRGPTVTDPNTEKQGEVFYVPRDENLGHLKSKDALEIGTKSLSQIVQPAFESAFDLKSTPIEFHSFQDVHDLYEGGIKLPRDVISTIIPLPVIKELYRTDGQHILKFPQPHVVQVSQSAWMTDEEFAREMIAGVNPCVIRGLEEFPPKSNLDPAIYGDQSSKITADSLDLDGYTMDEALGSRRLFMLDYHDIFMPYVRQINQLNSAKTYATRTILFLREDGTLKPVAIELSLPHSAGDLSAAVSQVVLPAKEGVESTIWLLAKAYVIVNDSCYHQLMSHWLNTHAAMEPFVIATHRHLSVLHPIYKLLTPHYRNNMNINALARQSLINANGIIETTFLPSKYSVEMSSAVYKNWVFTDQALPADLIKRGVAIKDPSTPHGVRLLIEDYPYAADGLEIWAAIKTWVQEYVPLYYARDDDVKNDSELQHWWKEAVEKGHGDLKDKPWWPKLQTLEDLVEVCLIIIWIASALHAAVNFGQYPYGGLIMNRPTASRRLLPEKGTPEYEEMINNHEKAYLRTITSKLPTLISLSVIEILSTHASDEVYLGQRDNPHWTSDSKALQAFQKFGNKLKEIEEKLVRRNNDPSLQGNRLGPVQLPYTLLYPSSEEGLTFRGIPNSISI
Experimental: The enzyme solution with a concentration of 10,000 U/ml was prepared. […] A solution (80 mM) of linoleic acid (substrate) was made. Likewise, a 50 mM phosphate buffer solution with a pH of 6.3 was prepared. The substrate, enzyme, and buffer were combined in equal proportions, each in a 2 ml volume. […] The inhibition percentage was determined by comparing the absorbance of the test samples with that of the positive control.

O=C(O)Cc1ccccc1Nc1c(Cl)cccc1Cl [Positive control, diclofenac sodium, reference compound]
Writhes, individual values ([1]; 10mg, single animals): 16.1 and 17.8 and 15.6
% analgesic activity (writhing inhibition) [1]: 73.02^*** %
% analgesic activity (writhing inhibition) ([1]; listed as positive control): 73.02%
Mean writhes [1]: 16.5 ± 0.76
Mean writhes ([1]; listed as Positive Control): 16.5

Clc1cccc(Cl)c1N=C1NCCN1 [Clonidine, reference compound]
Hot plate analysis (adrenergic), individual values ([2]; 30 Minutes): 9.56 and 8.88 and 10.88
Hot plate analysis (adrenergic), individual values ([2]; 45 Minutes): 10.6 and 9.32 and 10.99
Hot plate analysis (adrenergic), individual values ([2]; 15 minutes): 9.26 and 10.12 and 10.98
Hot plate analysis (adrenergic), individual values ([2]; 60 minutes): 8.2 and 10.01 and 7.59
Hot plate analysis (adrenergic), individual values ([2]; 90 minutes): 8.4 and 10.26 and 9.3

CC(=O)Oc1ccccc1C(=O)O [Aspirin, aspirin, reference compound]
% edema volume inhibition (mean) ([3]; 1st hour after carrageenan): 51.772%
% edema volume inhibition (mean) ([3]; 1st hour after carrageenan, listed as aspirin): 51.77 ± 0.10%
% edema volume inhibition (mean) ([3]; 2nd hour after carrageenan): 56.106%
% edema volume inhibition (mean) ([3]; 3rd hour after carrageenan): 57.334%
% edema volume inhibition (mean) ([3]; 4th hour after carrageenan): 60.956%
% edema volume inhibition (mean) ([3]; 5th hour after carrageenan): 57.694%
% edema volume inhibition (mean) ([3]; 5th hour after carrageenan, listed as aspirin): 57.77 ± 0.40%
Paw edema percent inhibition, individual values ([3]; hour 1): 52.34% and 51.04% and 52.35% and 51.83% and 51.3%
Paw edema, individual values ([3]; hour 1): 0.362 and 0.375 and 0.365 and 0.369 and 0.373
Paw edema percent inhibition, individual values ([3]; hour 2): 59.13% and 52.65% and 58.06% and 56.7% and 53.99%
Paw edema, individual values ([3]; hour 2): 0.302 and 0.349 and 0.31 and 0.32 and 0.34
Paw edema percent inhibition, individual values ([3]; hour 3): 59.52% and 56.85% and 58.59% and 57.12% and 54.59%
Paw edema, individual values ([3]; hour 3): 0.304 and 0.322 and 0.311 and 0.341
Paw edema percent inhibition, individual values ([3]; hour 4): 63.3% and 60.42% and 61.07% and 60.88% and 59.11%
Paw edema, individual values ([3]; hour 4): 0.275 and 0.301 and 0.297 and 0.312
Paw edema percent inhibition, individual values ([3]; hour 5): 59.25% and 55.95% and 53.49% and 59.23% and 60.55%
Paw edema, individual values ([3]; hour 5): 0.298 and 0.322 and 0.34 and 0.289

CC(c1cc2ccccc2s1)N(O)C(N)=O (stereo not shown) [Zileuton, reference compound]
inhibition at 62.5 µg/mL ([4]; read-out: % inhibition 5-LOX (mean ± SEM), 62.5 µg/ml): 79.8 ± 0.37%
inhibition at 250 µg/mL ([4]; read-out: % inhibition 5-LOX (mean ± SEM), 250 µg/ml): 88.98 ± 0.85%
inhibition at 500 µg/mL ([4]; read-out: % inhibition 5-LOX (mean ± SEM), 500 µg/ml): 92.22 ± 0.11%
inhibition at 1000 µg/mL ([4]; read-out: % inhibition 5-LOX (mean ± SEM), 1000 µg/ml): 95.2 ± 0.15%
